Results reported in PMC10541198, “Specific quinone reductase 2 inhibitors reduce metabolic burden and reverse Alzheimer’s disease phenotype in mice” (The Journal of Clinical Investigation, 2023).
Where “and” joins values, the source holds several entries; their conditions need not be identical. Identical values can stand only once.

System: QR2Δ HCT116 cells
Test: H2DCFDA detection of cellular ROS in QR2 KO cells
Assay type: cell-based, human
Conditions: 20 μM, 3 hour
Method: To establish direct target engagement and cell membrane permeability, a cellular thermal shift assay (CETSA) was carried out, using leading QR2is YB’s-537, 800, and 808. Following a 1 hour preincubation with 5 μM of the QR2is or vehicle, thermal aggregation curves (Taggs) of QR2 expressed in HEK293T were measured in increasing temperatures. All QR2is increased QR2 thermal stability compared with vehicle (Supplemental Figure 2A). Based on the Tagg curves we selected 73°C for isothermal dose-response fingerprint (IDTRF) experiments (Supplemental Figure 2B). The ITDRF allowed the relative quantification of the binding of each of the QR2is to QR2, measured as the EC50 (Figure 3A). […] We evaluated the safety of the QR2is using cell toxicity and viability assays. […] Cell viability was assessed by XTT assay in HEK239T cells, using a dose response, with 3- or 24-hour incubations of the leading QR2is. […] We then assessed WT HCT116 cells by immunoblot (Supplemental Figure 2, C and D), after being treated with YB-800 (2 μM) for 4 consecutive days. […]
The cells wer e har ves t ed a nd resuspended in 1% cl ear m e di um ( DM EM – with no phenol red, suppl em ent ed with 1% FBS, 1% L-Glutamine and 1% Penicillin-Streptomycin). […] The plate wa s then incubated in the dark at 37°C f or 3 h, before reading in a Tecan M200 Pro florescence microplate reader, using wavelengths Ex/Em = 485 nm / 535 nm . […]

Structure (SMILES): Cc1ccc(-c2cn3cccc(C)c3n2)cc1S(=O)(=O)N1CCC(C)CC1 [YB-800]
- ROS levels (replicates): 0.1657 and -0.09332 and -0.11 and 0.01889 and -0.0308
